Measurements from patent US5994361A, “Substituted purinyl derivatives with immunomodulating activity” (priority 1995, dated 1999).

Assays:
DA-3 mammary carcinoma [1] = assay: Tumor outgrowth of breast carcinoma, with cyclophosphamide (Example 92); assay type: in vivo, Balb/C mice
Method: Balb/C Mice (n-5/Gr) were used along with DA-3 mammary carcinoma cell line. The mice were treated from -2 to 13 days. Animals were monitored for tumor takes/tumor size and body weights for three weeks from Day 0 until Day 21. D0 was the day of tumor cell inoculation and D21 was the day of experiment termination.
(§1) Parameters of effect were measured by inhibition of tumor outgrowth and growth rate [tumors measured along the longest axis (length) and the perpendicular shortest axis (width) and the tumor volumes (T.V.±S.E.) was calculated by the formula T.V.=length (cm)×(width cm)^2 /2.] assessment of body weight loss.
The statistical significance of difference between tumor takes and tumor sizes of control-untreated and drug-treated groups is estimated using the Chi-square and Student's t tests respectively with significance determined at n<0.05.
The mice were divided into the following 5 groups:
Gr.1--Normal Saline (0.2 ml/mouse i.p. starting at D2)
Gr.2--CY (100 mg/kg single bolus i.v. at D0)
Gr.3--Compound #1 (25 mg/kg i.p. starting at D2)
Gr.4--Compound #1 (50 mg/kg i.p. starting at D2)
Gr.5--CY (100 mg/kg i.v. at D0+compound #1 50 mg/kg i.p. starting at D2)

spleen cells [2] = assay: Immunophenotyping on spleen cells, combination with 5 Fluorouracil; assay type: in vivo, C57/BLJ6 mice; details: N = 4
Method: (§2) After in vivo drugs analysis, the drugs were evaluated on whole blood for drug stability and toxicity. Furthermore, in vivo/ex vivo analysis was performed on normal and cyclophosphamide immunosuppressed animals plus 5Fu-treated animals. Cell immunophenotyping was performed on mouse-treatedblood and spleen. The following cell surface antigens were analyzed:
(§3) CD3 (all T cells), CD4 (T helper/inducer, binds class II-restricted T cells), CD8a (cytotoxic T cells, CTL adhesion), CD11a (T, B, NK, some stem cells, CTL adhesion anti LFA-1α), MAC-1 (monocyte/macrophage), NK (natural killer cells), Ly5 (B cells), CD45 (all leukocytes, protein tyrosine phosphates), and TCR (T cell receptor).
(§4) C57/BLJ6 mice (6-8 weeks old) were injected daily for 4 consecutive days, sacrificed at day 5 and immunophenotyping was performed on blood and spleen cells.
(§5) The cells were washed twice in PBS, resuspended in 1 ml of RPMI 2% FBS, and incubated for 45 min. on ice with monoclonal antibody. The cells were washed once, fixed with 1% paraformaldehyde, then analyzed using XL Coulter® counter.

blood cells [3] = assay: Immunophenotyping on blood cells, combination with 5 Fluorouracil; assay type: in vivo, C57/BLJ6 mice; details: N = 4
Method: as §2, §3, §4, §5

DA-3 mammary carcinoma [4] = assay: Compound #1 with Cytoxan 20 mg/kg against established DA-3 mammary carcinoma (Example 93); assay type: in vivo; details: compound #1 25 mg/kg i.p. daily + CTX 20 mg/kg i.v.
Method: Combination of compound #1 (25 and 50 mg/kg i.p. daily) plus CTX (20 mg/kg i.v. single bolus) was evaluated against day 4 established DA-3 tumors.

spleen cells [5] = assay: Immunophenotyping on spleen cells, combination with cyclophosphamide; assay type: in vivo, C57/BLJ6 mice; details: in combination with cyclophosphamide
Method: as §2, §3, §4, §5

blood cells [6] = assay: Immunophenotyping on blood cells, combination with cyclophosphamide; assay type: in vivo, C57/BLJ6 mice; details: N = 4
Method: as §2, §3, §4, §5

DA-3 mammary carcinoma [7] = assay: Compound #1 with Cytoxan 28 mg/kg against DA-3 mammary carcinoma, tumor sizes (Example 94); assay type: in vivo, Balb/c mice; design: key: tumor volume = length × width²/2
Method: as §1
In another experiment, the CTX treatment was prolonged. Balb/c mice were injected s.c. with 5×10^5 DA-3 tumor cells at day 0. At day 4 when established tumors appeared, tumor-bearing animals were randomized (n=11/gr.) and injected with CTX (at 28 mg/kg) i.v. bolus injections at days 4, 11, and 18. […]

blood cells [8] = assay: Immunophenotyping on blood cells of compound #1 treated mice; assay type: in vivo, C57/BLJ6 mice; design: unit not given here; details: N = 10; for CD8+ CD45+ (mean): daily 4 days
Method: as §2, §3, §4, §5

[9] = test system: T cell response (mixed lymphocyte reaction); assay: Mixed lymphocyte reaction (MLR) assay; assay type: cell-based, C57B1/6 mice and DBA/2 mice; details: at 10^-9 - 10^-5 M
Method: Mixed lymphocyte reaction is an in vitro counterpart of the allograft rejection. Briefly, T cell response was obtained when cells taken from two inbred strains from two outbred individuals of any species were mixed in vitro in culture.
After 4 days incubation, ^3 H thymidine uptake and cytotoxicity assay (CTL) were performed.
3 C57B1/6 mice and 3 DBA/2 mice wre killed and lymphocytes prepared using lympholyte M. The cell concentration was adjusted to 10×10^6 cell/ml for each lysis. DBA/2 cells were irradiated with 3000 Rads. 1 ml of the C57 cells+1 ml of the DBA/2 cells+1 ml of the drug at 3 different concentrations were incubated together for 5 days. Positive control was IL-2 at 15 ng/ml final. After 5 days, the CTL and MLR tests were carried out.
The cells were resuspended and 100 μl of cell suspension were deposited in each of the 96 wells in the plate, 50 μl of Thymidine at 20 μCi/ml was added for 6 hrs. The cells were then collected and counted using a beta counter.

For CN(C)c1ncnc2c1ncn2CCCCCOC(=O)N[C@H](CCCNC(=N)N)C(=O)O [Compound #1, N,N-Dimethylaminopurinyl Pentoxycarbonyl D-Arginine], the Tumor takes (DA-3 mammary carcinoma [1]; #1 25 mg/kg, day 4) was 2/5, the Tumor takes (DA-3 mammary carcinoma [1]; #1 25 mg/kg, day 6) was 2/5 and the Tumor takes (DA-3 mammary carcinoma [1]; #1 25 mg/kg, day 8) was 3/5. The Tumor takes (DA-3 mammary carcinoma [1]; #1 25 mg/kg, day 10) was 4/5, the Tumor takes (DA-3 mammary carcinoma [1]; #1 50 mg/kg, day 4) was 3/5 and the Tumor takes (DA-3 mammary carcinoma [1]; #1 50 mg/kg, day 6) was 3/5. The Tumor takes (DA-3 mammary carcinoma [1]; #1 50 mg/kg, day 8) was 3/5, the Tumor takes (DA-3 mammary carcinoma [1]; #1 50 mg/kg, day 10) was 3/5 and the Tumor takes (DA-3 mammary carcinoma [1]; CY 100 mg/kg + #1 50 mg/kg, day 4) was 4/5. The Tumor takes (DA-3 mammary carcinoma [1]; CY 100 mg/kg + #1 50 mg/kg, day 6) was 5/5, the Tumor takes (DA-3 mammary carcinoma [1]; CY 100 mg/kg + #1 50 mg/kg, day 8) was 5/5 and the Tumor takes (DA-3 mammary carcinoma [1]; CY 100 mg/kg + #1 50 mg/kg, day 10) was 5/5. For the same compound, the “CD4+ CD45- (mean)” value (spleen cells [2]; 5 FU + cpd #1 25 mg/kg) was 13.19, the “NK+ (mean)” value (spleen cells [2]; 5 FU + cpd #1 25 mg/kg) was 3.32 and the “CD4+ CD45- (mean)” value (spleen cells [2]; 5 FU + cpd #1 50 mg/kg) was 12.06. For the same compound, the “NK+ (mean)” value (spleen cells [2]; 5 FU + cpd #1 50 mg/kg) was 3.17, the “CD8+ CD45+ (mean)” value (blood cells [3]; 5 FU + cpd #1 25 mg/kg) was 10.11 and the “NK+ (mean)” value (blood cells [3]; 5 FU + cpd #1 25 mg/kg) was 3.58. The “CD8+ CD45+ (mean)” value (blood cells [3]; 5 FU + cpd #1 50 mg/kg) was 8.65, the “NK+ (mean)” value (blood cells [3]; 5 FU + cpd #1 50 mg/kg) was 4.12 and the anti-tumor effect (DA-3 mammary carcinoma [4]) was “no significant effect”. The “Immunophenotyping, spleen” value (spleen cells [5]) was “no effect”, the “CP8+ CD45+ (mean)” value (blood cells [6]; CY + cpd #1 25 mg/kg) was 13.25 and the “CP8+ CD45+ (mean)” value (blood cells [6]; CY + cpd #1 50 mg/kg) was 20.8. The tumor size (DA-3 mammary carcinoma [7]; BCH-1393 50 mg/kg + CTX 28 mg/kg, day 7) was 6.5, the tumor size (DA-3 mammary carcinoma [7]; BCH-1393 50 mg/kg + CTX 28 mg/kg, day 9) was 12.6 and the tumor size (DA-3 mammary carcinoma [7]; BCH-1393 50 mg/kg + CTX 28 mg/kg, day 11) was 20.2. The tumor size (DA-3 mammary carcinoma [7]; BCH-1393 50 mg/kg + CTX 28 mg/kg, day 14) was 9.5, the tumor size (DA-3 mammary carcinoma [7]; BCH-1393 50 mg/kg + CTX 28 mg/kg, day 16) was 41.7 and the tumor size (DA-3 mammary carcinoma [7]; BCH-1393 50 mg/kg + CTX 28 mg/kg, day 18) was 44.9. The tumor size (DA-3 mammary carcinoma [7]; BCH-1393 50 mg/kg + CTX 28 mg/kg, day 21) was 63.4, the tumor size (DA-3 mammary carcinoma [7]; BCH-1393 50 mg/kg + CTX 28 mg/kg, day 23) was 69.6 and the tumor size (DA-3 mammary carcinoma [7]; BCH-1393 50 mg/kg + CTX 28 mg/kg, day 25) was 95.4. It also gave a tumor size (DA-3 mammary carcinoma [7]; BCH-1393 50 mg/kg + CTX 28 mg/kg, day 28) of 104.2, a tumor size (DA-3 mammary carcinoma [7]; BCH-1393 50 mg/kg + CTX 28 mg/kg, day 30) of 115.8 and a tumor size (DA-3 mammary carcinoma [7]; BCH-1393 50 mg/kg Ip (Days 3-28) + CTX 28 mg/kg Iv (days 4, 11, 18), day 4) of 3.6. The tumor size (DA-3 mammary carcinoma [7]; single agent (CTX 28 mg/kg days 4, 11, 18, or BCH-1393 50 mg/kg days 3-28), day 4) was 2.7, the tumor size (DA-3 mammary carcinoma [7]; single agent (CTX 28 mg/kg or BCH-1393 50 mg/kg), day 7) was 10.2 and the tumor size (DA-3 mammary carcinoma [7]; single agent (CTX 28 mg/kg or BCH-1393 50 mg/kg), day 9) was 18.1. It also gave a tumor size (DA-3 mammary carcinoma [7]; single agent (CTX 28 mg/kg or BCH-1393 50 mg/kg), day 11) of 29.2, a tumor size (DA-3 mammary carcinoma [7]; single agent (CTX 28 mg/kg or BCH-1393 50 mg/kg), day 14) of 50.1 and a tumor size (DA-3 mammary carcinoma [7]; single agent (CTX 28 mg/kg or BCH-1393 50 mg/kg), day 16) of 58.5. It also gave a tumor size (DA-3 mammary carcinoma [7]; single agent (CTX 28 mg/kg or BCH-1393 50 mg/kg), day 18) of 66.3, a tumor size (DA-3 mammary carcinoma [7]; single agent (CTX 28 mg/kg or BCH-1393 50 mg/kg), day 21) of 94.2 and a tumor size (DA-3 mammary carcinoma [7]; single agent (CTX 28 mg/kg or BCH-1393 50 mg/kg), day 23) of 131.4. It also gave a tumor size (DA-3 mammary carcinoma [7]; single agent (CTX 28 mg/kg or BCH-1393 50 mg/kg), day 25) of 130.9, a tumor size (DA-3 mammary carcinoma [7]; single agent (CTX 28 mg/kg or BCH-1393 50 mg/kg), day 28) of 152.5 and a tumor size (DA-3 mammary carcinoma [7]; single agent (CTX 28 mg/kg or BCH-1393 50 mg/kg), day 30) of 187.2. The “CD11b+ (mean)” value (blood cells [8]; 25 mg/kg) was 13.71, the “NK+ CD3+ (mean)” value (blood cells [8]; 25 mg/kg) was 5.84 and the “NK+ CD3- (mean)” value (blood cells [8]; 25 mg/kg) was 5.90. For the same compound, the “CD8+ CD45+ (mean)” value (blood cells [8]; 25 mg/kg) was 10.11, the “CD11b+ (mean)” value (blood cells [8]; 50 mg/kg) was 9.68 and the “NK+ CD3+ (mean)” value (blood cells [8]; 50 mg/kg) was 3.25. For the same compound, the “NK+ CD3- (mean)” value (blood cells [8]; 50 mg/kg) was 8.14, the “CD8+ CD45+ (mean)” value (blood cells [8]; 50 mg/kg) was 8.65 and the MLR [9] was 1.5 - 4 ×.
